According to patent publication US20260085073A1, “PYRAZOLYLCARBOXAMIDE COMPOUNDS AND THEIR USE IN THERAPY” (Hotspot Therapeutics, Inc., priority 2022, published 2026):

Target: T1, MALT1 (Homo sapiens, UniProt Q9UDY8)
T1 construct: Avi-tagged FL MALT-1 (Pharmaron, stored at −70° C.); Avi-tag
T1 sequence (Q9UDY8 1-824): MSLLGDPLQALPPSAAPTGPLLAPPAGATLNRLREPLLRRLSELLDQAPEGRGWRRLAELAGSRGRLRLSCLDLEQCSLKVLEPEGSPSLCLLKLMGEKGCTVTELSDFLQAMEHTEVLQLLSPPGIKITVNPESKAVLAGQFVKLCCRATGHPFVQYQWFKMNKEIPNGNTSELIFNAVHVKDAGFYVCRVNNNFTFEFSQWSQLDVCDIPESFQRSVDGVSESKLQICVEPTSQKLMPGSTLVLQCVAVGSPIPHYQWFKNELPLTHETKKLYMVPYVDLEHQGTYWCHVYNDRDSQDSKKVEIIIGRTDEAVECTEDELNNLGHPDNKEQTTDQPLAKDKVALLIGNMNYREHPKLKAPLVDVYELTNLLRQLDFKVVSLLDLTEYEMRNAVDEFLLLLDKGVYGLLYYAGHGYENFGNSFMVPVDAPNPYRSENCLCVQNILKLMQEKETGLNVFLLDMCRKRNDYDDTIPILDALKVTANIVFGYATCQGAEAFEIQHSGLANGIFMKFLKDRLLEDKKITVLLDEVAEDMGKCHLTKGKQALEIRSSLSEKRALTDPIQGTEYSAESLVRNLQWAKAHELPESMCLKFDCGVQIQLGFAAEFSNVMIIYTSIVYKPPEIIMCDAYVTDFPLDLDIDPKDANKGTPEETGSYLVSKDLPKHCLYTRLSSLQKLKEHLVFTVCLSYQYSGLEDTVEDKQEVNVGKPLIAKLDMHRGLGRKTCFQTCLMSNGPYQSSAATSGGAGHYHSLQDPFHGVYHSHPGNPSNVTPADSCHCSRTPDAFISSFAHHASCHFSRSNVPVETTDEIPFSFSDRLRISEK
Assay: MALT1 inhibition assay (MALT-1 Fluorogenic Peptide Cleavage Assay, Ac-LRSR-AMC substrate)
Type: biochemical
Settings: Avi-tagged FL MALT-1, 30 min pre-incubation, 90 min reaction at room temperature, fluorescence intensity
How it was run: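 Full-length Avi-tagged MALT1 pre-incubated 30 min at room temperature with compounds (2% DMSO final) in HEPES pH 6.89, sodium citrate, TCEP, EDTA, CHAPS buffer. Ac-LRSR-AMC added from 50 µM (Km) or […] working stocks; 90 min at room temperature, AMC fluorescence (ex 342/em 441 nm); IC50 from % inhibition curves.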

| Structure (SMILES) | IC50 |
| --- | --- |
| Cn1nc(-c2cccc3ccoc23)c(C(F)(F)F)c1C(=O)Nc1cnc(-n2nccn2)c(C(F)F)c1 [Compound I-128] | < 500 nM |
| Cn1nc(-c2cccc3ccoc23)c(C(F)(F)F)c1C(=O)Nc1cnc(-n2nccn2)c(Cl)c1 [Compound I-129] | < 500 nM |
| Cn1nc(OCc2ccccc2)c(C(F)(F)F)c1C(=O)Nc1ccnc(C(F)(F)F)c1 [Compound I-130] | 500 to 2500 nM |
| Cn1nc(-c2cccc3c(=O)[nH]ccc23)c(C(F)(F)F)c1C(=O)Nc1cnc(-n2nccn2)c(C(F)F)c1 [Compound I-131] | < 500 nM |
| Cn1nc(-c2cccc3c(=O)[nH]ccc23)c(C(F)(F)F)c1C(=O)Nc1cnc(-n2nccn2)c(C(F)(F)F)c1 [Compound I-132] | < 500 nM |
| Cn1nc(-c2cccc3c(=O)[nH]ccc23)c(C(F)(F)F)c1C(=O)Nc1cnc(-n2nccn2)c(Cl)c1 [Compound I-133] | < 500 nM |
| Cn1nc(-c2ccccc2)c(C(F)(F)F)c1C(=O)Nc1ccnc(C2CC2)c1 [Compound I-134] | 2500 to 10000 nM |
| Cc1cc(NC(=O)c2c(C(F)(F)F)c(-c3ccccc3)nn2C)cnc1-n1nccn1 [Compound I-135] | 500 to 2500 nM |
| Cc1cc(NC(=O)c2c(C(F)(F)F)c(-c3ccccc3)nn2C)cnc1-n1ccnn1 [Compound I-136] | 2500 to 10000 nM |
| Cn1nc(-c2ccccc2)c(C(F)(F)F)c1C(=O)Nc1cc(C2CC2)ccn1 [Compound I-137] | > 10000 nM |
| Cn1nc(-c2ccccc2)c(C(F)(F)F)c1C(=O)Nc1cc(C(F)(F)F)ccn1 [Compound I-138] | 500 to 2500 nM |
| Cn1nc(-c2cccc3cnccc23)c(C(F)(F)F)c1C(=O)Nc1cnc(-n2nccn2)c(Cl)c1 [Compound I-140, N-(5-chloro-6-(2H-1,2,3-triazol-2-yl)pyridin-3-yl)-3-(isoquinolin-5-yl)-1-methyl-4-(trifluoromethyl)-1H-pyrazole-5-carboxamide] | < 500 nM |
| COc1ncc(NC(=O)c2c(C(F)(F)F)c(-c3cccc4ncccc34)nn2C)cc1C#N [Compound I-141] | 2500 to 10000 nM |
| Cn1nc(C(=O)Nc2cnc(-n3nccn3)c(Cl)c2)c(C(F)(F)F)c1-c1cccc2c1OCO2 [Compound I-142] | < 500 nM |
| Cn1nc(Cc2ccccc2)c(C(F)(F)F)c1C(=O)Nc1cnc(-n2nccn2)c(Cl)c1 [Compound I-143] | 500 to 2500 nM |
| Cn1nc(-c2cccc3c2OCO3)c(C(F)(F)F)c1C(=O)Nc1cnc(-n2nccn2)c(Cl)c1 [Compound I-144] | < 500 nM |
| Cn1nc(-c2cccc3occc23)c(C(F)(F)F)c1C(=O)Nc1cnc(-n2nccn2)c(Cl)c1 [Compound I-145] | < 500 nM |
| Cn1nc(-c2cccc3occc23)c(C(F)(F)F)c1C(=O)Nc1cnc(-n2nccn2)c(C(F)(F)F)c1 [Compound I-146] | < 500 nM |
| Cn1nc(-c2ccccc2)c(C(F)(F)F)c1C(=O)Nc1ccnc(C(F)(F)F)c1 [Compound I-147, 1-methyl-3-phenyl-4-(trifluoromethyl)-N-(2-(trifluoromethyl)pyridin-4-yl)-1H-pyrazole-5-carboxamide] | < 500 nM |
| Cn1nc(C(=O)Nc2cnc(-n3nccn3)c(Cl)c2)c(C(F)(F)F)c1-c1ccccc1 [Compound I-148] | < 500 nM |
| Cn1nc(C(=O)Nc2ccc(C(=O)N3CC(O)C3)c(Cl)c2)c(C(F)(F)F)c1-c1ccccc1 [Compound I-149] | > 10000 nM |
| Cn1nc(-c2ccccc2)c(C(F)(F)F)c1C(=O)Nc1ccc(C(=O)N2CC(O)C2)c(Cl)c1 [Compound I-150] | 2500 to 10000 nM |
| Cn1nc(-c2ccccc2)c(C(F)(F)F)c1C(=O)Nc1cnc(-n2nccn2)c(C(F)(F)F)c1 [Compound I-151] | < 500 nM |
| Cn1nc(-c2ccccc2)c(C(F)(F)F)c1C(=O)Nc1cnc(-n2nccn2)c(Cl)c1 [Compound I-152] | < 500 nM |
| Cn1nc(-c2ccccc2)c(C(F)(F)F)c1C(=O)Nc1cnc(-n2nccn2)c(C#N)c1 [Compound I-153] | < 500 nM |
| Cn1nc(-c2cccc3c2OC(F)(F)O3)c(C(F)(F)F)c1C(=O)Nc1cnc(-n2nccn2)c(Cl)c1 [Compound I-154] | < 500 nM |

| Structure (SMILES) | IC50 |
| --- | --- |
| Cn1nc(C(=O)Nc2ccc(C(=O)N3CC(O)C3)c(Cl)c2)cc1-c1ccccc1 [Compound I-155] | > 10000 nM |
| COc1ncc(NC(=O)c2c(C(F)(F)F)c(-c3cccc4ccoc34)nn2C)cc1C#N [Compound I-156] | < 500 nM |
| Cn1nc(-c2cccc3c(=O)[nH]ccc23)c(C(F)(F)F)c1C(=O)Nc1cnc(-n2nccn2)c(C#N)c1 [Compound I-157] | < 500 nM |
| Cn1nc(-c2cccc3c2OCC3)c(C(F)(F)F)c1C(=O)Nc1ccnc(C(F)(F)F)c1 [Compound I-158, 3-(2,3-dihydrobenzofuran-7-yl)-1-methyl-4-(trifluoromethyl)-N-(2-(trifluoromethyl)pyridin-4-yl)-1H-pyrazole-5-carboxamide] | < 500 nM |
| Cn1nc(-c2cccc3c2OCC3)c(C(F)(F)F)c1C(=O)Nc1cnc(-n2nccn2)c(Cl)c1 [Compound I-159] | < 500 nM |
| Cn1nc(-c2cncc3ccccc23)c(C(F)(F)F)c1C(=O)Nc1ccnc(C(F)(F)F)c1 [Compound I-160] | 500 to 2500 nM |
| Cn1nc(-c2cccc3ncnn23)c(C(F)(F)F)c1C(=O)Nc1ccnc(C(F)(F)F)c1 [Compound I-162, 3-([1,2,4]triazolo[1,5-a]pyridin-5-yl)-1-methyl-4-(trifluoromethyl)-N-(2-(trifluoromethyl)pyridin-4-yl)-1H-pyrazole-5-carboxamide] | 500 to 2500 nM |
| Cn1nc(-c2cccc3nccn23)c(C(F)(F)F)c1C(=O)Nc1cnc(-n2nccn2)c(Cl)c1 [Compound I-163] | < 500 nM |
| [2H]C([2H])([2H])n1nc(-c2ccccc2)c(C(F)(F)F)c1C(=O)Nc1cnc(-n2nccn2)c(Cl)c1 [Compound I-165] | < 500 nM |
| [2H]C([2H])([2H])n1nc(C(=O)Nc2cnc(-n3nccn3)c(Cl)c2)c(C(F)(F)F)c1-c1ccccc1 [Compound I-166] | < 500 nM |
| [2H]C([2H])([2H])n1nc(-c2ccccc2)c(C(F)(F)F)c1C(=O)Nc1cnc(-n2nccn2)c(C#N)c1 [Compound I-167] | < 500 nM |
| CCn1nc(C(=O)Nc2cnc(-n3nccn3)c(Cl)c2)c(C(F)(F)F)c1-c1ccccc1 [Compound I-168] | < 500 nM |
| CCn1nc(-c2ccccc2)c(C(F)(F)F)c1C(=O)Nc1cnc(-n2nccn2)c(Cl)c1 [Compound I-170] | < 500 nM |
| CN(C)CCn1nc(-c2ccccc2)c(C(F)(F)F)c1C(=O)Nc1cnc(-n2nccn2)c(Cl)c1 [Compound I-171, N-(5-chloro-6-(2H-1,2,3-triazol-2-yl)pyridin-3-yl)-1-(2-(dimethylamino)ethyl)-3-phenyl-4-(trifluoromethyl)-1H-pyrazole-5-carboxamide] | 500 to 2500 nM |
| COCCn1nc(-c2ccccc2)c(C(F)(F)F)c1C(=O)Nc1cnc(-n2nccn2)c(Cl)c1 [Compound I-172] | 500 to 2500 nM |
| COCCn1nc(C(=O)Nc2cnc(-n3nccn3)c(Cl)c2)c(C(F)(F)F)c1-c1ccccc1 [Compound I-173] | > 10000 nM |
| COCCn1nc(-c2ccccc2)c(C(F)(F)F)c1C(=O)Nc1cnc(-n2nccn2)c(C#N)c1 [Compound I-174] | 500 to 2500 nM |
| CN(C)CCn1nc(-c2ccccc2)c(C(F)(F)F)c1C(=O)Nc1cnc(-n2nccn2)c(C#N)c1 [Compound I-175] | 2500 to 10000 nM |
| O=C(Nc1cnc(-n2nccn2)c(Cl)c1)c1c(C(F)(F)F)c(-c2ccccc2)nn1C1COC1 [Compound I-176] | 2500 to 10000 nM |
| N#Cc1cc(NC(=O)c2c(C(F)(F)F)c(-c3ccccc3)nn2C2COC2)cnc1-n1nccn1 [Compound I-177] | 2500 to 10000 nM |
| O=C(Nc1ccnc(C(F)(F)F)c1)c1c(C(F)(F)F)c(-c2ccccc2)nn1C1COC1 [Compound I-178] | > 10000 nM |
| O=C(Nc1cnc(-n2nccn2)c(Cl)c1)c1c(C(F)(F)F)c(-c2ccccc2)nn1C(F)F [Compound I-179, N-(5-chloro-6-(2H-1,2,3-triazol-2-yl)pyridin-3-yl)-1-(difluoromethyl)-3-phenyl-4-(trifluoromethyl)-1H-pyrazole-5-carboxamide] | < 500 nM |
| O=C(Nc1cnc(-n2nccn2)c(Cl)c1)c1nn(C(F)F)c(-c2ccccc2)c1C(F)(F)F [Compound I-180] | < 500 nM |
| O=C(Nc1cnc(-n2nccn2)c(Cl)c1)c1cc(-c2ccccc2)nn1C(F)F [Compound I-181] | 2500 to 10000 nM |
| O=C(Nc1cnc(-n2nccn2)c(Cl)c1)c1cc(-c2ccccc2)n(C(F)F)n1 [Compound I-182] | > 10000 nM |
